Drawing on PubChem BioAssay (NCI), this text covers TGI and GI50 for 14 compounds.

Some test systems named below: SF-268 CNS; UO-31 renal; M19-MEL melanoma; OVCAR-3 ovarian; ACHN renal; SNB-19 CNS; HOP-18 NSCLC; NCI-H226 lung; MCF7 breast; NCI/ADR-RES ovarian.
What all share (assay): NCI tumour cell line growth inhibition, 48 h

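Five compound concentrations were applied to cells in 96-well plates for 48 hours; endpoints were derived by simple linear interpolation of the resulting dose-response curve. GI50 = concentration required for 50% inhibition of growth. TGI is the concentration that stops growth completely.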

As to `CCOC(=O)c1cc(/C=C/C(C)=C/C(=O)OC)oc1C`, the TGI with SF-268 CNS, in the assay with UO-31 renal, in the assay with M19-MEL melanoma, in the assay with OVCAR-3 ovarian, in the assay on ACHN renal and with SNB-19 CNS was over 100 µM in each case.

Take `COC1OC(CO)C(O)C1N` (centres undefined): the TGI in the assay with SF-268 CNS, with OVCAR-3 ovarian, in the assay on HOP-18 NSCLC, with NCI-H226 lung, with ACHN renal and with SNB-19 CNS was over 100 µM in each case.

Take `Cc1ccccc1C1=C(C(=O)Nc2ccc(Cl)c(Cl)c2)NC(=S)NC1N` (centres undefined): the TGI in the assay with SF-268 CNS, with UO-31 renal, with M19-MEL melanoma, in the assay on OVCAR-3 ovarian, in the assay on HOP-18 NSCLC and in the assay on ACHN renal was over 100 µM throughout. The compound further displayed a TGI in the assay on SNB-19 CNS of over 100 µM.

`Cc1ccc(-c2cc(-c3ccco3)c(C#N)c(=O)n2C2OC(OC(=O)c3ccccc3)C(OC(=O)c3ccccc3)C2OC(=O)c2ccccc2)cc1` (centres undefined): the TGI in the assay on SF-268 CNS, in the assay on UO-31 renal, with M19-MEL melanoma, in the assay with OVCAR-3 ovarian, with HOP-18 NSCLC and in the assay with ACHN renal was over 100 µM in each case.

As for `CC(=O)OCC(OC(C)=O)C(OC(C)=O)C(OC(C)=O)C(=O)CNn1c(-c2ccccc2Cl)nc2ccccc2c1=O` (centres undefined), the TGI with SF-268 CNS, with UO-31 renal, in the assay on M19-MEL melanoma, in the assay with OVCAR-3 ovarian, with NCI-H226 lung and in the assay on ACHN renal was over 100 µM each time. Further, the TGI with SNB-19 CNS was over 100 µM.

Take `CCCCN(CCCC)c1c([N+](=O)[O-])c(=O)nc2ccccn12`: the TGI is over 100 µM in the assay with SF-268 CNS; 94 µM in the assay with UO-31 renal; over 100 µM in the assay with M19-MEL melanoma; over 100 µM with OVCAR-3 ovarian; over 100 µM in the assay on NCI-H226 lung; over 100 µM in the assay on ACHN renal. Also, in the assay with SNB-19 CNS, the TGI was over 100 µM.

As to `COc1ccc(N2C(=O)[C@H]3CC(C)c4c([nH]c5ccccc45)[C@H]3C2=O)cc1` (some centres undefined), the TGI in the assay with SF-268 CNS was over 76.2 µM; in the assay with UO-31 renal, 83.8 µM; in the assay with M19-MEL melanoma, 55.5 µM; in the assay on OVCAR-3 ovarian, 6.68 µM; in the assay on MCF7 breast, over 100 µM; with NCI/ADR-RES ovarian, 12.4 µM. Further, the TGI is 38.3 µM in the assay with NCI-H226 lung, over 76.8 µM with ACHN renal and over 71.8 µM with SNB-19 CNS.

As to `Cc1cc(C)c(C(=O)c2no[n+]([O-])c2C(=O)c2c(C)cc(C)c(Br)c2C)c(C)c1Br`, the TGI in the assay with SF-268 CNS is 29.8 µM; in the assay with UO-31 renal, 20.2 µM; with M19-MEL melanoma, 25.7 µM; with OVCAR-3 ovarian, 29.5 µM; in the assay on NCI-H226 lung it was 31.6 µM; with ACHN renal it was 34.9 µM. This compound had a TGI in the assay with SNB-19 CNS of 29.1 µM.

`CC1=C(C(=O)Nc2cccc(Cl)c2)C(c2ccccc2F)C(C(=O)Nc2cccc(Cl)c2)=C(C)N1`: the TGI worked out at 36.8 µM with SF-268 CNS; 20.8 µM in the assay with UO-31 renal; 26.4 µM with M19-MEL melanoma; 25.2 µM with OVCAR-3 ovarian; 26 µM with NCI-H226 lung; 46 µM with ACHN renal. The compound also displayed a TGI with SNB-19 CNS of over 100 µM.

As to `OC1(c2ccccc2)OC(C#Cc2ccccc2)(c2ccccc2)c2ccccc21` (centres undefined), the TGI with SF-268 CNS came to 15.2 µM; in the assay with UO-31 renal, 4.05 µM; in the assay on M19-MEL melanoma it was 11.1 µM; in the assay with OVCAR-3 ovarian it was 5.93 µM; in the assay on NCI-H226 lung, 7.98 µM; in the assay on SNB-19 CNS, 26.3 µM.

On to `C/C=C/C=C/C=C/C=C/C(=O)O`, for which the TGI in the assay with SF-268 CNS, with UO-31 renal, in the assay on OVCAR-3 ovarian, in the assay with HOP-18 NSCLC, with NCI-H226 lung and in the assay with ACHN renal was over 100 µM throughout. The same compound had a TGI in the assay on SNB-19 CNS of over 100 µM.

With `CCC1=NC(CO)[C@H](c2ccccc2)O1` (some centres undefined), the TGI in the assay on SF-268 CNS, in the assay on M19-MEL melanoma, in the assay on OVCAR-3 ovarian, in the assay with HOP-18 NSCLC, with ACHN renal and with SNB-19 CNS was over 100 µM in each case.

Regarding `COc1cc(-c2cn(-c3ccc(Cl)c(Cl)c3)c(=O)n2C(C)=O)cc(OC)c1OC`, the GI50 in the assay on SF-268 CNS is 6.92 µM; in the assay on UO-31 renal, 12 µM; in the assay with OVCAR-3 ovarian it was 14.9 µM; in the assay on MCF7 breast, 14.7 µM; with NCI/ADR-RES ovarian it was 13.5 µM; with NCI-H226 lung it was 7.96 µM. Also, the figures for the GI50 in the assay with ACHN renal and in the assay on SNB-19 CNS were 10.4 µM and 11.3 µM, respectively. In addition, the TGI in the assay with SF-268 CNS worked out at 30 µM; in the assay with UO-31 renal, 27.4 µM; with OVCAR-3 ovarian, 38.1 µM; in the assay on MCF7 breast it was 37.7 µM; in the assay with NCI/ADR-RES ovarian, 31.7 µM; with NCI-H226 lung, 25.9 µM. The values for the TGI in the assay on ACHN renal and with SNB-19 CNS were 30.5 µM and 33.2 µM, respectively.

Regarding `COC1C2C=CC(C2)[C@H]1[N+](=O)[O-]` (some centres undefined), the TGI in the assay with SF-268 CNS, with UO-31 renal, in the assay on M19-MEL melanoma, in the assay with OVCAR-3 ovarian, with NCI-H226 lung and in the assay with ACHN renal was over 100 µM in each case. For the same compound, the TGI in the assay with SNB-19 CNS is over 100 µM.
